Test results published in patent US20260048155A1, “BIOCOMPATIBLE PARAHYDROGEN HYPERPOLARIZED SOLUTIONS BY PRECIPITATION AND RE-DISSOLUTION” (North Carolina State University, priority 2022, published 2026).
“And” between values parts separate entries of the source, which are not always exact repeats. Equal values may be shown once.

Assay: SABRE-SHEATH hyperpolarization, 13C polarization quantified at 1.4 T benchtop NMR
Type: physicochemical
Protocol: A previously reported setup and experimental protocol has been used to prepare high P13C of up to ≈14.5% of 30 mM [1-^13C]pyruvate in methanol, which was confirmed after transferring the HP samples from the polarizer into a 1.4 T benchtop ^1H/^13C NMR system. The mean of N=19 experiments from 9 samples measured on 5 different days under the same conditions was 8±2%. […] These hyperpolarization values correspond to ^13C enhancement ε13C of ≈75,000-fold. The optimal experimental parameters are obtained via sweeping the static magnetic field (optimum transfer field BT≈0.4 μT) and temperature (TT≈10° C.) using a p-H2 flow rate of 75 standard cubic centimeters per minute (scc/m), and ≈7 bar total pressure, FIGS. 4A-4B, respectively.
CD3OD is widely used as the SABRE-reaction-hosting solvent because it provides convenient means of attaining high-field NMR spectrometer lock. However, non-deuterated polarization media may be preferred for biomedical applications. For this reason, systematic relaxation dynamics studies were performed comparing CD3OD, CH3OH, and C2H5OH for SABRE-SHEATH [1-^13C]pyruvate hyperpolarization, investigating relevant parameters for these solvents and for fixed concentrations of pyruvate, SABRE catalyst, and DMSO (30 mM, 6 mM, and 40 mM, respectively). However, the ethanol sample was prepared with only 6 mM pyruvate and 10% H2O due to limited solubility. The optimal Br was similar in all investigated samples (≈0.4 μT, FIG. 4A). […] (FIG. 4B). Thus, all the experiments described below were performed using these optimized Br and Tr parameters.
Preparation of samples: Parahydrogen was enriched to >99.10% and filled into aluminum cylinders at 350 psi using a setup described previously. The SABRE samples were prepared in CD3OD (CAS: DLM-24-25), CH3OH (CAS: 67-56-1), or ethanol (CAS: 64-17-5) using the stated concentration of sodium pyruvate (in most cases 30 mM, natural abundance—CAS: 113-24-6; [1-^13C]-labeled—CAS: 490709-250 MG), an iridium catalyst at 6 mM concentration synthesized as described previously, doped with 40 mM dimethyl sulfoxide (DMSO) to block one active center of the catalyst and to avoid pyruvate from binding to the catalyst at two sites. Oxygen was removed from the samples by guiding argon gas at approximately ambient pressure through the samples for ˜1 min. Also, oxygen was removed from all solvents used for the preparation of the samples (methanol or ethanol) or for the precipitation of pyruvate (ethyl acetate (EtAc), room temperature, CAS: 141-78-6) prior to mixing them to the catalyst substrate solutions. For the SABRE experiments, the samples were filled into medium wall, or in case of precipitation studies, into regular wall NMR tubes (SKU: WG-1000-8, outer diameter 5 mm, inner diameter 4 mm and length 8 inches). Note that the total volume of the catalyst-substrate sample was 600 μL (in the baseline and solvent study) or 100 μL in experiments were precipitation and phase separation were performed. In case of dissolution SABRE, 300 μL of room-temperature H2O (HPLC grade-submicron filtered) or D2O (CAS: 7789-20-0) were added.
SABRE hyperpolarization setup: The experimental setup has been used previously but will be described in much greater detail elsewhere. Briefly, it consisted of a 3-layer mu-metal of 3″ I.D. and 9″ DEPTH to shield external magnetic fields (Magnetic Shield Corporation, ZG-203), combined with a custom-made solenoid to generate a static magnetic field, B0, of ˜300 nT (28 AWG wire, 650 windings, 7″ homogeneous length). Note that this coil provided a constant magnetic field here (5 VDC power supply connected to the solenoid via a resistor board to regulate the current and effectively set the magnetic field). […]

SMILES: CC(=O)[13C](=O)O [[1-^13C]pyruvate]
- fold lower P13C compared to CH3OH and CD3OD (6 mM in 90% C2H5OH + 10% H2O): 1.4 fold
- P13C (30 mM in CD3OD, representative polarization build-up at 0.4 μT): 8.5±0.1%
- P13C (30 mM in CH3OH, representative polarization build-up at 0.4 μT): 7.8±0.1%
- P13C, mean (30 mM in methanol, N=19 experiments from 9 samples on 5 days, inter-day mean with s.d.): 8±2%
- P13C, maximum (30 mM in methanol, SABRE-SHEATH, detected at 1.4 T): ≈ 14.5% and 14.5%
- P13C (60 mM in CH3OH, 6 mM catalyst, p-H2 80 scc/m): 3.7±0.06%
- P13C, mean base-line before precipitation (in CH3OH, batch used for filtering tests): 10±1%
- 13C enhancement ε13C (in methanol, vs thermal polarization at 1.4 T): ≈ 75,000 fold
